# Reference: patent US10391148B2, “Method of prevention and inhibition of preterm labor” (Wayne State University, priority 2016, dated 2019)
# Key:
# Assay type in all cases: in vivo, mouse
# [1] = tested on: pregnant female μMT mice (LPS-induced PTL); assay: LPS-induced preterm labor in pregnant μMT mice: preterm delivery and neonatal/fetal mortality; settings: read on gd 17.5, fPIBF1 1 μg (800 ng in method), cPIBF1 300 ng, vs PBS; for neonatal/fetal mortality: protein intravenous on gd 16.5 before 5 μg intraperitoneal LPS; for rate of preterm delivery (PTL): protein intravenous on gd 16.5 three hours before 5 μg intraperitoneal LPS
# Protocol: (§1) Six to ten-week old virgin female C57BL/6 (WT) or μMT mice were mated with male Balb/c mice. Female mice were examined daily in the early morning for the presence of a vaginal plug, which denoted gestational day (gd) 0.5. In the late morning of gd 16.5, pregnant female mice were intraperitoneally administered with 200 μl sterile PBS or 200 μl sterile PBS containing 0.5, 2.5, 5, 10 or 20 μg lipopolysaccharides (LPS) from Salmonella enterica serotype typhimurium (Sigma-Aldrich L6143). The various doses of LPS were given to the mice randomly. In some experiments, splenic B cells of 5 to 8-week old virgin female WT or IL-10−/− mice were purified using a mouse resting B cell negative isolation kit (Miltenyi Biotec 130-090-862) to 94% to 99% purity as determined by CD19 staining. 107 purified B cells were adoptively transferred in 200 μl sterile PBS into pregnant female μMT mice on gd 14.5 prior to LPS administration on gd 16.5. In some other experiments, 200 μl sterile PBS or 200 μl sterile PBS containing 800 ng recombinant full-length PIBF1 (fPIBF1) (aa 1-757 (SEQ ID NO:11, with an N-terminal glutathione-S-transferase (GST) tag of 232 amino acids, Abnova H00010464-P01) or 300 ng of a recombinant C-terminal fragment of PIBF1 (cPIBF1) (aa 660-755 (SEQ ID NO:12), with an N-terminal glutathione-S-transferase (GST) tag of 232 amino acids, Abnova H00010464-Q01) was intravenously administered to pregnant female μMT mice on gd 16.5 three hours prior to intraperitoneal LPS administration. 24 hours after LPS administration, female mice were examined for delivery and death of delivered pups if delivery occurred. They were then sacrificed for the examination of neonatal/fetal mortality, which was calculated as the total number of dead delivered pups and dead fetuses divided by the total number of implantation sites. Uteri were collected, briefly washed in PBS and processed for RNA and protein extraction or flow cytometry. The people performing the analysis were not blinded to the genotype or treatment of the mice.
# The sample size was calculated based on the effect size derived from preliminary data at 5% significance level and 80% power using the software G*Power 3.1. Sample availability exceeded the estimated sample size. Results are expressed as mean±S.E.M. Percentage data were subjected to square root transformation prior to statistical analysis to verify test assumptions of equal variance. Statistical difference in the rate of PTL between different strains of mice or different treatment groups was assessed by Fisher's exact test. Statistical difference in neonatal/fetal mortality was assessed by Mann-Whitney U test. For flow cytometry and qRT-PCR data, Shapiro-Wilk test was used to determine the normality of the data. Statistical significance was assessed by Student's t-test for normally distributed data and Mann-Whitney U test for non-normally distributed data. p values <0.05 were considered statistically significant.
# [2] = tested on: uterine proinflammatory mediators (Tnf, Il6, Mmp9, Cxcl2, Cxcl3, Cxcl5, Il1b, Cxcl10, Ccl3, Cxcl1, Ccl2, Cxcl9 transcripts); assay: qRT-PCR of proinflammatory mediator transcripts in uterine tissues of LPS-challenged μMT mice; settings: 24 hours after intravenous fPIBF1 and 5 μg intraperitoneal LPS, fold change of transcripts
# Protocol: Six to ten-week old virgin female C57BL/6 (WT) or μMT mice were mated with male Balb/c mice. Female mice were examined daily in the early morning for the presence of a vaginal plug, which denoted gestational day (gd) 0.5. In the late morning of gd 16.5, pregnant female mice were intraperitoneally administered with 200 μl sterile PBS or 200 μl sterile PBS containing 0.5, 2.5, 5, 10 or 20 μg lipopolysaccharides (LPS) from Salmonella enterica serotype typhimurium (Sigma-Aldrich L6143). The various doses of LPS were given to the mice randomly. In some experiments, splenic B cells of 5 to 8-week old virgin female WT or IL-10−/− mice were purified using a mouse resting B cell negative isolation kit (Miltenyi Biotec 130-090-862) to 94% to 99% purity as determined by CD19 staining. 107 purified B cells were adoptively transferred in 200 μl sterile PBS into pregnant female μMT mice on gd 14.5 prior to LPS administration on gd 16.5. […] They were then sacrificed for the examination of neonatal/fetal mortality, which was calculated as the total number of dead delivered pups and dead fetuses divided by the total number of implantation sites. […]
# [3] = tested on: CD11b+Ly-6G+ neutrophils in uterine tissues; assay: Flow cytometry of uterine neutrophils of LPS-challenged μMT mice; settings: vs PBS; for uterine neutrophil activation (CD11b, CD18, iNOS, ICAM-1, MHC-II, CD62L expression): μMT mice 24 hours after intravenous protein and intraperitoneal LPS
# Protocol: as §1, with “Uteri were collected, briefly washed in PBS and processed for RNA and protein extraction or flow cytometry. The people performing the analysis were not blinded to the genotype or treatment of the mice.” left out
# Cells were incubated with an Fc blocking reagent and stained at 4° C. with antibodies to various cell surface antigens (Tables 4, 5). […] Events were acquired on an LSR II cytometer (BD Biosciences) and analyzed by FlowJo (Tree Star). […]
Substance,neonatal/fetal mortality [1],rate of preterm delivery (PTL) [1],rate of preterm delivery (PTL) ([1]; listed as C-terminal fragment of PIBF1),uterine induction of proinflammatory mediators (uterine inflammation) [2],uterine induction of proinflammatory mediators (uterine inflammation) ([2]; listed as full-length PIBF1),neutrophil infiltration into the uterus (frequency of CD11b+Ly-6G+ neutrophils in CD45+ cells) ([3]; gd 17.5 μMT mice after intravenous protein and intraperitoneal LPS on gd 16.5),"uterine neutrophil activation (CD11b, CD18, iNOS, ICAM-1, MHC-II, CD62L expression) [3]","uterine neutrophil activation (CD11b, CD18, iNOS, ICAM-1, MHC-II, CD62L expression) ([3]; listed as full-length PIBF1)"
"cPIBF1: recombinant C-terminal fragment of PIBF1, aa 660-755, SEQ ID NO:12, N-terminal GST tag, Abnova H00010464-Q01",neither mitigated,neither mitigated,does not protect,,,,,
"fPIBF1: recombinant full-length PIBF1, aa 1-757, SEQ ID NO:11, N-terminal GST tag of 232 amino acids, Abnova H00010464-P01",significantly reduced,significantly reduced,,suppressed,reduces,inhibited,reduced activation,reduces
